Entries after “also recorded” stand apart in the source; their conditions may differ.
System: PCP-R choroid plexus cell line
Test: Ussing chamber electrophysiology of TRPV4 agonist-stimulated transepithelial ion transport (short-circuit current and conductance)
Format: cell-based, porcine
Source text: In order to follow transepithelial ion movement, Ussing chamber electrophysiological techniques were used. The choroid plexus model is a high resistance, continuous cell line of porcine choroid plexus epithelial cells grown on permeable supports. […] The cells were mounted on electrophysiological apparatuses for analysis of transepithelial ion flux in response to inhibitory or stimulatory reagents. Filters were excised, mounted in a Ussing chamber, and connected to a DVC-1000 Voltage/Current Clamp with voltage and current electrodes on either side of the membrane. Each half of the chamber contained a tapered fluid compartment with fittings for voltage electrodes (close to the epithelial membrane) and current electrodes (at the opposite end of the chamber). The fluid chamber was water jacketed to maintain a constant temperature (37° C.). The cells were bathed in serum-free media. Media were circulated in the chambers and oxygenated by means of a 5% CO2/O2 gas lift. The spontaneous transepithelial potential difference was measured and clamped to zero, and the resultant short-circuit (SCC) was monitored continuously as a measurement of net transepithelial ion flux. As per convention, a negative deflection in the SCC was either cation secretion (from blood to CSF) or anion absorption (CSF to blood). Transepithelial resistance (TER) was recorded every 200 seconds throughout each experiment by applying a 2 mV pulse and using the resulting deflection in the SCC to calculate the TER by Ohm's law. Conductances were calculated from the change in current during the voltages pulses. Specifically conductance is the change in current divided by the magnitude of the imposed voltage. In all cases, the graphs shown in each panel represent a series of control and experimental cultures that were grown and analyzed in parallel.
After the basal current was stabilized, effectors were added to one or both sides of polarized monolayer as dictated by the physiological situation.
Further, conductance is a measurement of the permeability of the tissue to water and electrolytes. So, as the conductance goes up, one would expect greater ion and fluid permeability across the choroid plexus which is a barrier epithelium.
The same methods were used in this Example as in Example 1.

Row | Compound | GSK1016790A-stimulated transepithelial potassium secretion in the direction of the CSF (short-circuit current, SCC) (cells pre-treated from time -10 to 0 minutes, GSK1016790A added at 0 minutes) | TRPV4 agonist-induced increase in conductance (permeability) (pre-treatment before the TRPV4 agonist GSK1016790A) | change in conductance (agonist alone) | transepithelial ion transport response measured as short-circuit current (SCC) (agonist alone, added at time 0 minutes)
1 | NCCC(Oc1ccc(C(F)(F)F)cc1)c1ccccc1 (stereo not shown) [norfluoxetine] | effective at inhibiting the TRPV4-stimulated ion transport; also recorded: completely inhibited | blocked this increased permeability |  | 
2 | CC(C)C[C@H](NC(=O)c1cc2ccccc2s1)C(=O)N1CCN(C(=O)[C@H](CO)NS(=O)(=O)c2ccc(Cl)cc2Cl)CC1 [GSK1016790A] |  |  | large increase in the conductance | consistent with cation secretion into the CSF
